Legend:
Acetylcholinesterase [1] = target: T1, Acetylcholinesterase (Homo sapiens, UniProt P22303); test: Inhibition of AChE (unknown origin) using acetylthiocholine iodide as substrate by Ellman's method
Acetylcholinesterase [2] = target: T1, Acetylcholinesterase; test: Inhibition of AChE (unknown origin)

T1 sequence (P22303 whole entry): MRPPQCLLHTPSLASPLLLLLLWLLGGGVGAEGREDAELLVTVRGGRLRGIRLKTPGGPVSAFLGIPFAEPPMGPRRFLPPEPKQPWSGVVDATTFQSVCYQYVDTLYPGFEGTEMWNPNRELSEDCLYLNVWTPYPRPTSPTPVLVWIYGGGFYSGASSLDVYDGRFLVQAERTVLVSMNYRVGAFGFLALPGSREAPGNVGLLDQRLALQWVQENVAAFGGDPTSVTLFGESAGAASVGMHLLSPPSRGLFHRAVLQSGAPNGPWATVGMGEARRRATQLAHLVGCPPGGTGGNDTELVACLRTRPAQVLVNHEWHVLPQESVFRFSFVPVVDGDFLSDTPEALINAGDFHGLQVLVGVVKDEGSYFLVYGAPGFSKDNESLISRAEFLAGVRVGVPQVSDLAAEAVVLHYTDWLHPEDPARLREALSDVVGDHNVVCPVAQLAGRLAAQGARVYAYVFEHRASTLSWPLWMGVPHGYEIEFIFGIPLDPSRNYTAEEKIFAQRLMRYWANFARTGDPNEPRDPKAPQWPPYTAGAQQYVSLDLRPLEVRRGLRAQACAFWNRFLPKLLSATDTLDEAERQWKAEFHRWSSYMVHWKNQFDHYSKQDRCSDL

SMILES	IC50 (Acetylcholinesterase [1])	IC50 (Acetylcholinesterase [2])
C[C@@H]1C[C@H]2CC(=O)[C@H]3CCC[N+]4([O-])CCC[C@@H]2[C@]34C1 (stereo partly drawn)	> 100 µM	–
C[C@@H]1C[C@H]2CC(=O)[C@H]3CCCN4CCC[C@@H]2[C@]34C1	> 100 µM	–
C[C@@H]1C[C@H]2CC(=O)[C@H]3CCC[N+]4([O-])CCC[C@]2(O)[C@]34C1 (stereo partly drawn)	–	0.59 µM

From ChEMBL document CHEMBL4251744, “Identification of Lycopodium Alkaloids Produced by an Ultraviolet-Irradiated Strain of Paraboeremia, an Endophytic Fungus from Lycopodium serratum var. longipetiolatum” (J Nat Prod, 2018)
